# Literature values, collected in patent US20100323983A1, “PHARMACEUTICAL OR COSMETIC PREPARATIONS FOR TOPICAL AND/OR PARENTERAL APPLICATION, PREPARATION METHODS THEREOF, AND USES THEREOF” (priority 2007, published 2010).
# Conditions: humans
substance,measurement,value
hyaluronic acid,excretion in the urine,less than 1 % of total clearance
